Laboratory results reported in EP4417202A1, “ANTI-CANCER ACTION OF BAG1-SELECTIVE IMIDAZOPYRIDINE COMPOUNDS IN STEROID HORMONE RECEPTOR-POSITIVE BREAST AND PROSTATE CANCER” (Karlsruher Institut für Technologie, priority 2023, dated 2024).

Tests used:
T47D = assay: Clonogenic assay (clonal expansion); type: cell-based; conditions: Homo sapiens; Breast Cancer (T47D), ER+; inhibition of clonal expansion
Description: (§1) Cells were seeded at a density of 1-2×10^3 cells/well in a 6 well plate in RPMI 1640 supplemented with 10% FBS, penicillin (100 u/ml), streptomycin (100 u/ml), and L-glutamine (2 mM). Cells were treated with increasing concentrations of X15695 and cultured for 14 to 21 days. Medium and compounds were exchanged after 7 days. Cells were fixed with methanol/ acetic acid mixture (3:1 v/v) and the formation of colonies was visualized using 0.5% crystal violet (w/v) in 20% methanol (v/v). Plates were scanned in a conventional office scanner (Epson). The area covered by colonies was calculated using the ColonyArea Plugin for ImageJ.

22Rv.1 = assay: Clonogenic assay (clonal expansion); type: cell-based; conditions: Homo sapiens, 22Rv1; Prostate Cancer (22Rv.1), AR+; inhibition of clonal expansion
Description: as §1

DU145 = assay: Clonogenic assay (clonal expansion); type: cell-based; conditions: Homo sapiens, DU-145; Prostate Cancer (DU145), AR-; inhibition of clonal expansion
Description: as §1

TRMCF-7 cells = assay: Clonogenic assay (clonal expansion); type: cell-based
Description: as §1

U2OS = assay: Clonogenic assay (clonal expansion); type: cell-based; conditions: U2OS (osteosarcoma)
Description: as §1

MCF-7 = assay: Clonogenic assay (clonal expansion); type: cell-based
Description: as §1

A549 = assay: Clonogenic assay (clonal expansion); type: cell-based; conditions: A549 (lung)
Description: as §1

ZR75-1 = assay: Clonogenic assay (clonal expansion); type: cell-based; conditions: Homo sapiens, ZR-75-1; Breast Cancer (ZR75-1), ER+; inhibition of clonal expansion
Description: as §1

HeLa = assay: Clonogenic assay (clonal expansion); type: cell-based; conditions: HeLa (cervical)
Description: as §1

MDA-MB231 = assay: Clonogenic assay (clonal expansion); type: cell-based; conditions: Homo sapiens, MDA-MB-231; Breast Cancer (MDA-MB231), ER-; inhibition of clonal expansion
Description: as §1

PC3 = assay: Clonogenic assay (clonal expansion); type: cell-based; conditions: Homo sapiens; Prostate Cancer (PC3), AR-; inhibition of clonal expansion
Description: as §1

LNCaP = assay: Clonogenic assay (clonal expansion); type: cell-based; conditions: Homo sapiens; Prostate Cancer (LNCaP), AR+; inhibition of clonal expansion
Description: as §1

BAG1 = assay: Western blot of BAG1 level in breast cancer cells; type: cell-based; conditions: MCF-7 and T47D cells, 48 h
LAPC-4 tumors = assay: Mouse xenograft experiment, LAPC-4; type: in vivo; conditions: LAPC-4 xenograft, 42 days
Description: MCF-7 and LAPC-4 cells (2×10^6) were suspended in 100 µl PBS: Matrigel (Corning NY USA, 1:1) and injected subcutaneously into both flanks of 6-7 weeks old female (for MCF-7 cells) and male (for LAPC-4 cells) athymic nude-Foxn1^nu mice (Envigo RMS GmbH, Düsseldorf, Germany). When tumor volumes were around 50 to100 mm^3, mice were randomized into four groups (7 mice per group) and treated daily by oral gavage as follows: (1) Control group (Vehicle) (corn oil, 1.0% dimethyl sulfoxide (DMSO) and (2) X15695 group, 30 mg per kg body weight) for the MCF-7 tumors or (1) Control group (Vehicle) (corn oil, 1.0% dimethyl sulfoxide (DMSO) ([…]), (3) X15695 group, 30 mg per kg body weight) and, (4) X15695 group (15 mg per kg body weight) for the LAPC-4 tumors. Body weight and tumor volumes were measured twice a week. Tumor volume was measured with a digital vernier caliper and calculated using the formula vol = length × width × height × 0.5236 and recorded or calculated relative to the starting volume which was nominally set at 100%. After 16 days for the MCF-7 tumors or 42 days for the LAPC-4 tumors, mice were sacrificed and the tumors removed, photographed, and weighed. Percent body weight change was calculated using the following formula: group percent weight change = [(new weight - initial weight)/initial weight] × 100]. Tumors were snap-frozen and stored for Western blot analysis.

BAG2 with mutant p53 = biological target: T1, BAG2 with mutant p53 (Homo sapiens, UniProt O95816); assay: Co-immunoprecipitation in T47D cells; type: cell-based; conditions: 1 µM, 48 h
T1 construct: endogenous in cells; host or cells: T47D
Description: (§2) Cells were harvested, washed with PBS, and lysed using NP-40 lysis buffer. Protein A agarose beads (Thermo Fisher Scientific) were mixed with protein G agarose beads (Thermo Fisher Scientific) (4:1) and preincubated overnight at 4°C with anti-p53 or anti-BAG1 or control IgG antibody. Cellular extracts from X15695 treated and untreated cells (1,000 µg) were incubated with antibody-preincubated protein A/G agarose beads for 3 to 4 h at room temperature. The beads with immunoprecipitated proteins were collected at 4°C by centrifugation at 1,000 g for 5 min and washed 4 to 5 times with NP-40 lysis buffer. The immunoprecipitated proteins were eluted by heating in SDS sample buffer for 5 min at 95°C and resolved on SDS-PAGE. Thereafter, they were subjected to Western blot analysis to detect mortalin, BAG1, BAG2, BAG5 and p53. Cellular extracts containing 50 to 70 µg protein from X15695 treated and untreated cells were used as the input control for the targeted proteins.

BAG5 with mutant p53 = biological target: T2, BAG5 with mutant p53 (Homo sapiens, UniProt Q9UL15); assay: Co-immunoprecipitation in T47D cells; type: cell-based; conditions: 1 µM, 48 h
T2 construct: endogenous in cells; host or cells: T47D
Description: as §2

ERα = test system: ERα
Description: For Western blotting, cells were lysed in NP-40 lysis buffer (1% NP-40, 50 mM Tris-HCl, pH 8.0, 150 mM NaCl, 5 mM EDTA) or 1× passive lysis buffer (Promega, Germany) for 15 min on ice. Cell debris was removed by centrifugation at 13,000 rpm for 10 min and used for SDS-polyacrylamide gel electrophoresis (PAGE) and Western blotting.
Western Blotting was carried out using standard protocols with antibodies: p53 (clone DO1), p53 (Sp5, Thermo Fisher Scientific Karlsruhe, Germany), Mdm2 (4B2, Abcam, Cambridge, UK). […] Secondary goat anti-mouse and goat anti-rabbit antibodies were purchased from DAKO (Bollschweil, Germany).

p53 = assay: Western blot of p53 level in breast cancer cells; type: cell-based; conditions: 48 h

T2 sequence (Q9UL15 whole entry, stated change not applied): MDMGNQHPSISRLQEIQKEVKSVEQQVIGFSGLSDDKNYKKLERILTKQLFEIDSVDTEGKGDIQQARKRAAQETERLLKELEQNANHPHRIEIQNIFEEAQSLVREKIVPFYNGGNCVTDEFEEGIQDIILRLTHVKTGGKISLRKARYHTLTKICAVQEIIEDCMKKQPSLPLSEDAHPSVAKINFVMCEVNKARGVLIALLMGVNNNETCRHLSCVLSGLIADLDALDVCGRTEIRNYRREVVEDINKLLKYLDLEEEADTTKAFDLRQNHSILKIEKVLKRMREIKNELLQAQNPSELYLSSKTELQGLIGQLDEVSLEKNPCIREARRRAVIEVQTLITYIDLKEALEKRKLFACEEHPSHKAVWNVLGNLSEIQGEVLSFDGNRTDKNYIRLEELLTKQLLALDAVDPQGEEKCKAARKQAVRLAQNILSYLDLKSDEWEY
T1 sequence (O95816 whole entry, stated change not applied): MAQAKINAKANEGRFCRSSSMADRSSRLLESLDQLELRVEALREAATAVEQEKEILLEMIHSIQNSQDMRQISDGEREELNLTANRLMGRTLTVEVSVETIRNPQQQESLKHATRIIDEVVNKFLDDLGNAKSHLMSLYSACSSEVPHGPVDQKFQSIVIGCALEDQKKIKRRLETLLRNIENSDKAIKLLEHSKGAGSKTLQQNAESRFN

## Fc1ccc(-c2cn3cc(C(F)(F)F)cc(Cl)c3n2)cc1 [Compound X15695, 8-Chloro-2-(4-fluorophenyl)-6-(trifluoromethyl)imidazo[1,2-a]pyridine]
T47D
  IC50: 10.4 ± 2.8 nM
22Rv.1
  IC50: 40.2 ± 16.7 nM
DU145
  IC50: 1340 nM
TRMCF-7 cells
  inhibition of clonal expansion: active
U2OS
  effect on clonal expansion: did not have any effect
MCF-7; Homo sapiens, MCF7, Breast Cancer (MCF-7), ER+, inhibition of clonal expansion
  IC50: 3.5 ± 1.7 nM
MCF-7; MCF-7 cells, compared with HeLa, A549 and U2OS
  effect on clonal expansion: dose-dependently inhibited the clonal expansion
A549
  effect on clonal expansion: did not have any effect
ZR75-1
  IC50: 7.3 ± 1.6 nM
HeLa
  effect on clonal expansion: did not have any effect
MDA-MB231
  IC50: 5540 nM
PC3
  IC50: 2040 nM
LNCaP
  IC50: 14.1 nM
BAG1
  level of the BAG1 proteins: dose-dependent decrease in the level of the BAG1 proteins
LAPC-4 tumors; oral 30 mg/kg/day, less effective than enzalutamide (10 mg/kg/day)
  tumor growth: effectively inhibit tumor growth over vehicle
LAPC-4 tumors; oral
  tolerability, body weight: well tolerated during the study and no sign of toxicity or weight loss was observed
BAG2 with mutant p53
  interaction of BAG2 with mutant p53: disrupts the interaction of BAG2
BAG5 with mutant p53
  interaction of BAG5 with mutant p53: not BAG5
ERα; MCF-7 cells, 1 µM, time course
  ERα downregulation over time: rather slow but more sustained downregulation lasing over 24 to 48 h
ERα; MCF-7 cells, 8 h
  concentration sufficient to downregulate ERα: ≤ 1 nM
ERα; immunoblotting, MCF-7 and T47D cells, 48 h
  ERα level: dose-dependently decreased ERα level
p53; MCF-7 cells (wild-type p53)
  p53 level: significantly increased
p53; T47D cells (mutated p53 L194F)
  p53 level: not in T47D cells
